Laboratory results from patent US6235742A, “5-substituted pyrazolo[4,3-D]pyrimidin-7-ones” (Pfizer Inc., priority 1997, dated 2001).
“Also recorded” adds a separate entry of the source. Read-outs that look alike come from different tables or passages of the source.

Key:
Format in all cases: biochemical
PDE5 [1] = target: T1, PDE5 (Oryctolagus cuniculus, UniProt G1SX67); assay: PDE5 inhibition, rabbit platelet
T1 construct: PDE5 is also obtained from human platelets or rabbit platelets; from tissue; host or cells: rabbit platelets
Text: (§1) In vitro PDE inhibitory activities against cyclic guanosine 3', 5'-monophosphate (cGMP) and cyclic adenosine 3', 5'-monophosphate (cAMP) phosphodiesterases can be determined by measurement of their IC50 inhibition of enzyme activity.
(§2) The required PDE enzymes are isolated from a variety of sources, including rat kidney, human corpus cavernosum, human platelets, rabbit platelets, human cardiac ventricle, human skeletal muscle and bovine retina, essentially by the method of W J Thompson and M M Appleman (Biochem, 1971, 10, 311).
(§3) For example, for some of the studies the calcium/calmodulin (Ca/CAM)-dependent PDE (PDE1) is obtained from either human cardiac ventricle or rat kidney. The cGMP-stimulated PDE (PDE2), the cGMP-specificPDE (PDE5) and the cGMP-inhibited cAMP PDE (PDE3) are obtained from human corpus cavernosum tissue. PDE5 is also obtained from human platelets or rabbit platelets by techniques usual in the art. The cAMP-specific PDE (PDE4) is obtained from rat kidney. The photoreceptor PDE (PDE6) is obtained from bovine retina.
(§4) Assays are performed using a modification of the "batch" method of W J Thompson et al (Biochem, 1979, 18, 5228).

Ca/CAM-dependent PDE1 = assay: PDE1 inhibition stated in words (source not given); settings: for potency and selectivity as PDE1 inhibitor: summary in words
Text: as §1, §2, §3, §4

[2] = test system: PDE1 (calcium/calmodulin (Ca/CAM)-dependent PDE); assay: PDE1 inhibition, rat kidney
Text: as §1, §2, §3, §4

PDE5 [3] = target: T2, PDE5 (Homo sapiens, UniProt O76074); assay: PDE5 inhibition, human platelet; settings: comparative study
T2 construct: PDE5 is also obtained from human platelets or rabbit platelets; from tissue; host or cells: human platelets
Text: as §1, §2, §3, §4

PDE6 (photoreceptor PDE) = target: T3, PDE6 (photoreceptor PDE) (Bos taurus, UniProt P11541+P23439); assay: PDE inhibition, PDE type 6 from bovine retina; settings: PDE type 6, bovine retina
T3 construct: The photoreceptor PDE (PDE6) is obtained from bovine retina; from tissue; host or cells: bovine retina
T3 sequence (P11541 2-856 limits assumed): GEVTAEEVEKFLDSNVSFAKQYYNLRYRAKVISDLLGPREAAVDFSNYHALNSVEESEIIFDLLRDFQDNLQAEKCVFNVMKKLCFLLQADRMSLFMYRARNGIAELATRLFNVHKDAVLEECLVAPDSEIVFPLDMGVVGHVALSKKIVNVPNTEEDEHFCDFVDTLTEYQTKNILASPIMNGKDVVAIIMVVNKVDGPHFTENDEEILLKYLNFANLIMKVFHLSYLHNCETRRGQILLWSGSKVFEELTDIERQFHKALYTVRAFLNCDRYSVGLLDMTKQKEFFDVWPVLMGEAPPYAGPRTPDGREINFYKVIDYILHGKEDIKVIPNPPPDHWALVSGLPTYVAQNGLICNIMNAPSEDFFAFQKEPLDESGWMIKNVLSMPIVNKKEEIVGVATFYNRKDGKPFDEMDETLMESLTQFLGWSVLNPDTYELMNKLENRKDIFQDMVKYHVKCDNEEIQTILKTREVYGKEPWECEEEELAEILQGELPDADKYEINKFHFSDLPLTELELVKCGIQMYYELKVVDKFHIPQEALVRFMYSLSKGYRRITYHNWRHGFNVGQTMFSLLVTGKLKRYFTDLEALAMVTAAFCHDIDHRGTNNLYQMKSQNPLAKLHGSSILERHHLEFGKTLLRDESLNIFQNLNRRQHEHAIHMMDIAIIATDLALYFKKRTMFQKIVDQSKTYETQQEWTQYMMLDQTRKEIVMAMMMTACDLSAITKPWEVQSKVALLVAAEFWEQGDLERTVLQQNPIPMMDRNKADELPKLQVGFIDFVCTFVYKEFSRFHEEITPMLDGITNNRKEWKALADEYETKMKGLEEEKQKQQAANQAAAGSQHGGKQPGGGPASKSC
T3 sequence (P23439 2-850 limits assumed): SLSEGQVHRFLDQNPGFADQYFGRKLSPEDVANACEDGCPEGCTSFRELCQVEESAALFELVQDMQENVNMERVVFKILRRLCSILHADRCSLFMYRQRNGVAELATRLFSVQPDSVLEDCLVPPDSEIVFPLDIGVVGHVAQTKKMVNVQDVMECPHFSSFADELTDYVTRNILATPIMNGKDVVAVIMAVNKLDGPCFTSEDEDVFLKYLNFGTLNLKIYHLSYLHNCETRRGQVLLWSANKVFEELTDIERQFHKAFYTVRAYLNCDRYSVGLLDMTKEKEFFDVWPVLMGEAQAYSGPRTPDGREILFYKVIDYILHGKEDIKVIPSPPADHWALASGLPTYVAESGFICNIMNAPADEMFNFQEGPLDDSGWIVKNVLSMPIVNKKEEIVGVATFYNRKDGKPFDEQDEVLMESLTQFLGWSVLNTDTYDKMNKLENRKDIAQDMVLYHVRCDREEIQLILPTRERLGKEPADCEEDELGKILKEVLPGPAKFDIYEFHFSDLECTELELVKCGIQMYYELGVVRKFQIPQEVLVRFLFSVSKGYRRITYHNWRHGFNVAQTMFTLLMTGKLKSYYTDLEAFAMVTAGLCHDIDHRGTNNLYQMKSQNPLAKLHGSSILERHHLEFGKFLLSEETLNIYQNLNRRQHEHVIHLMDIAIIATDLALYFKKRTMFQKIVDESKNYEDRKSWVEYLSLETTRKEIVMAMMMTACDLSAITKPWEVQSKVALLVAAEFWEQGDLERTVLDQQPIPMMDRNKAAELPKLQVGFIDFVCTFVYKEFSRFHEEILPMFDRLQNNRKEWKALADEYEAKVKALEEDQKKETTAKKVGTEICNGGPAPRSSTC
Text: as §1, §2, §3, §4

[4] = target: T4, PDE1 (calcium/calmodulin (Ca/CAM)-dependent PDE) (Homo sapiens, UniProt Q14123); assay: PDE inhibition, PDE type 1 from human cardiac ventricle; settings: PDE type 1, human cardiac ventricle
T4 construct: obtained from either human cardiac ventricle or rat kidney; from tissue; host or cells: human cardiac ventricle
Text: as §1, §2, §3, §4

[5] = test system: PDE3 (cGMP-inhibited cAMP PDE); assay: PDE inhibition, PDE type 3 from human corpus cavernosum; settings: PDE type 3, human corpus cavernosum
Text: as §1, §2, §3, §4

PDE4 (cAMP-specific PDE) = assay: PDE inhibition, PDE type 4 from rat kidney; settings: PDE type 4, rat kidney
Text: as §1, §2, §3, §4

[6] = target: T5, PDE2 (cGMP-stimulated PDE) (Homo sapiens, UniProt O00408); assay: PDE inhibition, PDE type 2 from human corpus cavernosum; settings: PDE type 2, human corpus cavernosum
T5 construct: are obtained from human corpus cavernosum tissue; from tissue; host or cells: human corpus cavernosum
Text: as §1, §2, §3, §4

PDE5 (cGMP-specific PDE) = target: T6, PDE5 (cGMP-specific PDE) (Homo sapiens, UniProt O76074); assay: PDE inhibition, PDE type 5 from human corpus cavernosum; settings: PDE type 5, human corpus cavernosum
T6 construct: are obtained from human corpus cavernosum tissue; from tissue; host or cells: human corpus cavernosum
Text: as §1, §2, §3, §4

[7] = rabbit platelet, comparative study, read-out: PDE5 INHIBITION - IC50 Values
[8] = rat kidney, comparative study, cGMP, read-out: cGMP / PDE1 INHIBITION - IC50 Values
[9] = further studies, IC50 per protocol, read-out: RABBIT PLATELET PDE5
[10] = further studies, IC50 per protocol, read-out: RAT KIDNEY PDE1

T4 sequence (Q14123 1-634 isoform Q14123-2): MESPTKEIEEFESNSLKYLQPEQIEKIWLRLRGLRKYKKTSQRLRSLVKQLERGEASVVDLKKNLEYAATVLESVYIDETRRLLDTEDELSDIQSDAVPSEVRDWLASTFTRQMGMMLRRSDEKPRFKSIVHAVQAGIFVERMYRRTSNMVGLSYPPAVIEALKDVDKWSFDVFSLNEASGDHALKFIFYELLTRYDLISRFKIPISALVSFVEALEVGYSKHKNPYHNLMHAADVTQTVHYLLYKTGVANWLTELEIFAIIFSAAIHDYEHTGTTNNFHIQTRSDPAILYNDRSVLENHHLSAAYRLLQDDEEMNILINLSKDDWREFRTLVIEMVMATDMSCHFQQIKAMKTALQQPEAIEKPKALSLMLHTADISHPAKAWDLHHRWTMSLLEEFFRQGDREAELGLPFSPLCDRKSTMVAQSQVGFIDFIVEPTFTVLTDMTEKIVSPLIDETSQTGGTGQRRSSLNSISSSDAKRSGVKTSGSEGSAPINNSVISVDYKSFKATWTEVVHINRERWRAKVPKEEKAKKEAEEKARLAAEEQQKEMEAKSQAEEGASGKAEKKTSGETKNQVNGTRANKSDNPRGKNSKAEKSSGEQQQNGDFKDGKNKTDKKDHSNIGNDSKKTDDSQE
T5 sequence (O00408 whole entry): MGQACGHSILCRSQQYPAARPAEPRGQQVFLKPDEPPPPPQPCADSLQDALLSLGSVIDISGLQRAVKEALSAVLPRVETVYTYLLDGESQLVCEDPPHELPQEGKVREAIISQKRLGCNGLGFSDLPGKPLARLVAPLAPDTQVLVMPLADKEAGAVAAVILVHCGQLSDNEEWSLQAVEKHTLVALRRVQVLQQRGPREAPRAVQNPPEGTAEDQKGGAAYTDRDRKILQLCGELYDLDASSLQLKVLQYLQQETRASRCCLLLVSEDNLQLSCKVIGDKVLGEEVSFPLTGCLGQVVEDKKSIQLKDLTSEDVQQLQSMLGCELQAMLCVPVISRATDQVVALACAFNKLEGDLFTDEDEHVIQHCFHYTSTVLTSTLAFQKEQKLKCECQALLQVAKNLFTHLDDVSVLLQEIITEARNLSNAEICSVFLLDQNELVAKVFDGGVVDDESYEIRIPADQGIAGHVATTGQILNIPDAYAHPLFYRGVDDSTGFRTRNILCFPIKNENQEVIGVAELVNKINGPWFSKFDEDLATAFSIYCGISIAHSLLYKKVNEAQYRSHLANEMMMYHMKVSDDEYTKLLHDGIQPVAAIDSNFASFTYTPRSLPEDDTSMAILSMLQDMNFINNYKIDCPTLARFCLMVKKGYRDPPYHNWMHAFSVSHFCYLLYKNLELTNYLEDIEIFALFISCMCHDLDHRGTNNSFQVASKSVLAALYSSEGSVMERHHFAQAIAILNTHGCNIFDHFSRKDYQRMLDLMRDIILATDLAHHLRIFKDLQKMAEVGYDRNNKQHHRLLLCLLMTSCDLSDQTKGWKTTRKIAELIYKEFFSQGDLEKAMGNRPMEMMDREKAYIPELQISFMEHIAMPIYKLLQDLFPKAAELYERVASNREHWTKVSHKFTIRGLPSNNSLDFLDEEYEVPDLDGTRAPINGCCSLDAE

IC50 (PDE5 [1]; [7]) | IC50 [2, 8] | IC50 (PDE5 [3]) | IC50 (PDE5 [1]; [9]) | IC50 [2, 10] | IC50 (PDE6 (photoreceptor PDE)) | IC50 [4] | IC50 [5] | IC50 (PDE4 (cAMP-specific PDE)) | IC50 [6] | IC50 (PDE5 (cGMP-specific PDE)) | Compound | PDE1 inhibition (Ca/CAM-dependent PDE1; statement in words) | potency and selectivity as PDE1 inhibitor (Ca/CAM-dependent PDE1)
2.8 µM | 9.9 µM | 3.2 µM | – | – | – | – | – | – | – | – | Cc1nn(C)c2c(=O)[nH]c(Cc3ccc(N(C)C)cc3)nc12 ['188 compound, reference compound] | not as effective at such low concentrations; also recorded: at least a weak PDE1 inhibitor | –
– | – | – | 1.8 µM | 0.059 µM | – | – | – | – | – | – | CCCc1nn(C)c2c(=O)[nH]c(Cc3ccccc3NS(C)(=O)=O)nc12 [Example 36] | – | potent and selective PDE1 inhibitors
– | – | – | 6.4 µM | 0.094 µM | – | – | – | – | – | – | CCCc1nn(C)c2c(=O)[nH]c(Cc3ccc(NS(=O)(=O)c4ccccc4)cc3)nc12 [Example 37] | – | potent and selective PDE1 inhibitors
6.7 µM | 0.037 µM | 2.7 µM | – | – | 2.03 µM | 0.038 µM | 3.94 µM | 23 µM | 1.99 µM | 2.49 µM | CCCc1nn(C)c2c(=O)[nH]c(Cc3ccc(N(CC)CC)cc3)nc12 [Example 50, 5-[4-(diethylamino)benzyl]-1-methyl-3-propyl-6,7-dihydro-1H-pyrazolo[4,3-d]pyrimidin-7-one] | – | potent and selective PDE1 inhibitors
